Data published in patent US20110046223A1, “TREATMENT OF NEUROFIBROMATOSIS” (RAMOT AT TEL-AVIV UNIVERSITY LTD., priority 2006, published 2011).

Tests used:
[1] = test system: total ERK, total Akt, or total RalA; assay: total ERK, total Akt, total RalA, Western immunoblotting; assay type: cell-based, human; settings: NF-1 cell lines
Experimental: Unless otherwise indicated, cells were lysed 48 hours after being treated with lysis buffer, as described in Haklai, et al., supra. […] Protein bands were visualized by ECL and quantified by densitometry with Image Master VDS-CL (Amersham) using TINA 2.0 software (Ray Tests). To obtain reliable comparisons between replicated experiments for statistical analysis, a standardization procedure was used, in which the density of each given protein band as recorded with its specific Ab, was normalized. […] The standard average density was defined as 1.0, and each of the individually determined bands was related to this value. […] Actin cytoskeletal elements were labeled with rhodamine-phalloidin, and digital fluorescence images were collected on a Zeiss LSM 510 confocal microscope fitted with fluorescein and rhodamine filters, as described in Gana-Weisz, M., et al., supra.
Next, to determine whether down-regulation of active Ras by FTS was accompanied by inhibition of Ras signaling, the effect of FTS on steady-state levels of phospho-ERK, phospho-Akt, and RalA-GTP as read-outs of the three prominent Ras pathways, Ras/Raf/MEK/ERK, Ras/PI3K/Akt, and Ras/RalGEF/RalA, respectively, was examined. […]

[2] = test system: Ras-GTP; assay: serum-stimulated GTP loading of Ras, kinetic study; assay type: cell-based, human
Experimental: Unless otherwise indicated, cells were lysed 48 hours after being treated with lysis buffer, as described in Haklai, et al., supra. Lysates containing 50-100 μg protein were subjected to SDS-PAGE followed by Western immunoblotting, as described in Haklai, et al., supra.; Elad-Sfadia, G., Haklai, R., Ballan, E., Gabius, H. J., Kloog, Y., J. Biol. Chem. 277:37169-75 (2002); Paz, A., Haklai, R., Elad, G., Ballab, E., Kloog, Y., Oncogene 20:7486-93 (2000), with one of the following antibodies: 1:2000 pan-Ras Ab-3; 1:10,000 anti-phospho-ERK Ab; 1:2000 anti-ERK Ab; 1:1000 anti-Akt Ab; 1:2000 anti-phospho-Akt Ab; 1:500 antitubulin Ab; 1:5000 anti-RalA Ab; 1:1000 anti-p120 RasGAP Ab; or 1:200 anti-neurofibromin Ab. The immunoblots were then exposed either to 1:7500 peroxidase goat anti-mouse IgG or to 1:2000 peroxidase goat anti-rabbit IgG. Protein bands were visualized by ECL and quantified by densitometry with Image Master VDS-CL (Amersham) using TINA 2.0 software (Ray Tests). To obtain reliable comparisons between replicated experiments for statistical analysis, a standardization procedure was used, in which the density of each given protein band as recorded with its specific Ab, was normalized. Normalization was achieved by collecting and averaging all the data obtained for a given band (for example, for the Ras-GTP band) in a set of experiments, irrespective of cell type or treatment. The standard average density was defined as 1.0, and each of the individually determined bands was related to this value. Accordingly, the normalized value of a single band would be 1.0 if it was equal to the standard value, or would range between values above and below 1.0 (respectively representing values higher and lower than the standard). The normalized values thus obtained were used to calculate means±SD and, to determine, using Student's t-test, the statistical significance of differences between populations. Lysates containing 500 μg protein were used to determine Ras-GTP by the GST-RBD pull-down assay, and this was followed by Western immunoblotting with pan anti-Ras Ab as described in Elad-Sfadia, G., et al., supra. Lysates containing 500 μg protein were used to determine RalA-GTP by the GST-RalBD pulldown assay, followed by Western immunoblotting with anti-RalA Ab [Wolthuis, R. M., Zwartkruis, F., Moen, T. C., Bos, J. L. Ral. Curr. Biol. 8:471-4 (1998)]. Actin cytoskeletal elements were labeled with rhodamine-phalloidin, and digital fluorescence images were collected on a Zeiss LSM 510 confocal microscope fitted with fluorescein and rhodamine filters, as described in Gana-Weisz, M., et al., supra.
First, the time courses of serum-stimulated GTP loading of Ras and serum-stimulated activation of signals downstream of Ras were determined. […]

[3] = test system: T265P21 cells; assay: cell growth, direct counting of cells, FTS dose-response; assay type: cell-based; settings: Homo sapiens, 72 h, grown three days, FTS 12.5-100 μM, means±SD, n=4, read-out: estimated IC50, decrease in cell number
Experimental: The human NF-1 MPNST cell lines ST88-14, T265P21 and 90-8 and the non-NF-1 human MPNST cell line STS26T were obtained from Dr. Nancy Ratner. T265P21, 90-8, and ST88-14 cells were maintained in RPMI/15% fetal calf serum (FCS) medium and STS26T cells were maintained in DMEM/10% FCS, as described in Weisz, B., et al., supra. Cells were plated at a density of 1×10^6 cells per 10-cm plate for biochemical and immunoblotting assays, 2.5×10^3 cells/well in 24-well plates for cell-growth assays, or on glass cover slips (5×10^4 cells per 35-mm dish) for labeling of actin cytoskeletal elements. The cells were incubated for 24 hours, treated with the indicated concentration of FTS or with the vehicle (0.1% DMSO) (control) for the times specified in each of the experiments, and then subjected to the various assays as described below. The effect of FTS on cell growth was estimated by direct counting of cells collected from each well, as described in Weisz, B., et al., supra.
To determine the effects of the Ras inhibitor FTS on the growth rates of the NF-1 cell lines ST88-14, 90-8, T265P21 and the non-NF-1 STS26T cells, the cells were grown for two days in the absence and in the presence of 50 μM FTS, and then photomicrographed. […] Additionally, cells were grown for three days and then detached, collected, and counted as described in Methods to determine dose-dependent inhibition by FTS.

CC(C)=CCC/C(C)=C/CC/C(C)=C/CSc1ccccc1C(=O)O [FTS, S-farnesylthiosalicylic acid]
amounts of total ERK, total Akt, or total RalA [1]: did not affect
duration of the Ras signal in the presence of FTS ([2]; NF-1 cells, serum stimulation): 5 to 10 min
serum-stimulated increase in Ras-GTP ([2]; STS26T cells, 20 μM FTS, serum-starved 24 hours, stimulated with 10% serum): strongly inhibited
duration of the serum-stimulated signals (Ras-GTP, phospho-ERK, phospho-Akt) ([2]; all NF-1 cell lines): shortened the duration of the signals
serum-stimulated increase in Ras-GTP ([2]; all NF-1 cell lines (T265P21, ST88-14, 90-8)): reduced
IC50 [3]: 35 ± 7 µM
